Columns and labels:
Assay type in all cases: in vivo
Morningglory [1] = assay: Post-emergence herbicide test; conditions: Ipomoea, read-out: % plant inhibition (Mogl); for inhibition at 1120 g/ha: 1.12 kg/ha; for inhibition at 11210 g/ha: 11.21 kg/ha
Method in brief: (§1)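 Post-emergence greenhouse spray: 2–3-wk-old plants in soil pans; atomizer at 170.3 kPa (10 psig); 1870 L/Ha carrier volume, ~0.4% v/v emulsifier. Read-out is % inhibition vs control at 10–14 d (usually 11 d), occasionally also 24–28 d.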

Velvetleaf [2] = assay: Post-emergence herbicide test; conditions: Abutilon theophrasti, read-out: % plant inhibition (Vele); for inhibition at 1120 g/ha: 1.12 kg/ha; for inhibition at 11210 g/ha: 11.21 kg/ha
Method in brief: as §1

Downy Brome [3] = assay: Post-emergence herbicide test; conditions: Bromus tectorum, read-out: % plant inhibition (Dobr); for inhibition at 1120 g/ha: 1.12 kg/ha; for inhibition at 11210 g/ha: 11.21 kg/ha
Method in brief: as §1

Barnyardgrass [4] = assay: Post-emergence herbicide test; conditions: Echinochloa crus-galli, read-out: % plant inhibition (Bygr); for inhibition at 1120 g/ha: 1.12 kg/ha; for inhibition at 11210 g/ha: 11.21 kg/ha
Method in brief: as §1

Indian Mustard [5] = assay: Post-emergence herbicide test; conditions: Brassica juncea, read-out: % plant inhibition (Inmu); for inhibition at 1120 g/ha: 1.12 kg/ha; for inhibition at 11210 g/ha: 11.21 kg/ha
Method in brief: as §1

Seedling johnsongrass [6] = assay: Post-emergence herbicide test; conditions: Sorghum halepense, read-out: % plant inhibition (Sejg); for inhibition at 1120 g/ha: 1.12 kg/ha; for inhibition at 11210 g/ha: 11.21 kg/ha
Method in brief: as §1

Yellow nutsedge [7] = assay: Post-emergence herbicide test; conditions: Cyperus, read-out: % plant inhibition (Yens); for inhibition at 1120 g/ha: 1.12 kg/ha; for inhibition at 11210 g/ha: 11.21 kg/ha
Method in brief: as §1

Wild buckwheat [8] = assay: Post-emergence herbicide test; conditions: Fallopia convolvulus, read-out: % plant inhibition (Wibw); for inhibition at 1120 g/ha: 1.12 kg/ha; for inhibition at 11210 g/ha: 11.21 kg/ha
Method in brief: as §1

Annual bluegrass [9] = assay: Post-emergence herbicide test; conditions: read-out: % plant inhibition (Anbg); for inhibition at 1120 g/ha: 1.12 kg/ha; for inhibition at 11210 g/ha: 11.21 kg/ha
Method in brief: as §1

Cocklebur [10] = assay: Post-emergence herbicide test; conditions: Xanthium strumarium, read-out: % plant inhibition (Cobu); for inhibition at 1120 g/ha: 1.12 kg/ha; for inhibition at 11210 g/ha: 11.21 kg/ha
Method in brief: as §1

Morningglory [11] = assay: Pre-emergence herbicide test; conditions: Ipomoea, read-out: % plant inhibition (Mogl); for inhibition at 1120 g/ha: 1.12 kg/ha; for inhibition at 11210 g/ha: 11.21 kg/ha
Method in brief: (§2)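 Compound applied pre-emergence directly onto sown seeds in soil, then seeds covered with untreated topsoil. Plants grown in greenhouse with bottom watering. Inhibition (%) recorded visually at about 11 days.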

Velvetleaf [12] = assay: Pre-emergence herbicide test; conditions: Abutilon theophrasti, read-out: % plant inhibition (Vele); for inhibition at 1120 g/ha: 1.12 kg/ha; for inhibition at 11210 g/ha: 11.21 kg/ha
Method in brief: as §2

Downy Brome [13] = assay: Pre-emergence herbicide test; conditions: Bromus tectorum, read-out: % plant inhibition (Dobr); for inhibition at 1120 g/ha: 1.12 kg/ha; for inhibition at 11210 g/ha: 11.21 kg/ha
Method in brief: as §2

Barnyardgrass [14] = assay: Pre-emergence herbicide test; conditions: Echinochloa crus-galli, read-out: % plant inhibition (Bygr); for inhibition at 1120 g/ha: 1.12 kg/ha; for inhibition at 11210 g/ha: 11.21 kg/ha
Method in brief: as §2

Indian Mustard [15] = assay: Pre-emergence herbicide test; conditions: Brassica juncea, read-out: % plant inhibition (Inmu); for inhibition at 1120 g/ha: 1.12 kg/ha; for inhibition at 11210 g/ha: 11.21 kg/ha
Method in brief: as §2

Seedling johnsongrass [16] = assay: Pre-emergence herbicide test; conditions: Sorghum halepense, read-out: % plant inhibition (Sejg); for inhibition at 1120 g/ha: 1.12 kg/ha; for inhibition at 11210 g/ha: 11.21 kg/ha
Method in brief: as §2

Yellow nutsedge [17] = assay: Pre-emergence herbicide test; conditions: Cyperus, read-out: % plant inhibition (Yens); for inhibition at 1120 g/ha: 1.12 kg/ha; for inhibition at 11210 g/ha: 11.21 kg/ha
Method in brief: as §2

Wild buckwheat [18] = assay: Pre-emergence herbicide test; conditions: Fallopia convolvulus, read-out: % plant inhibition (Wibw); for inhibition at 1120 g/ha: 1.12 kg/ha; for inhibition at 11210 g/ha: 11.21 kg/ha
Method in brief: as §2

Annual bluegrass [19] = assay: Pre-emergence herbicide test; conditions: read-out: % plant inhibition (Anbg); for inhibition at 1120 g/ha: 1.12 kg/ha; for inhibition at 11210 g/ha: 11.21 kg/ha
Method in brief: as §2

Cocklebur [20] = assay: Pre-emergence herbicide test; conditions: Xanthium strumarium, read-out: % plant inhibition (Cobu); for inhibition at 1120 g/ha: 1.12 kg/ha; for inhibition at 11210 g/ha: 11.21 kg/ha
Method in brief: as §2

Structure (SMILES) | inhibition at 1120 g/ha (Morningglory [1]) | inhibition at 1120 g/ha (Velvetleaf [2]) | inhibition at 1120 g/ha (Downy Brome [3]) | inhibition at 1120 g/ha (Barnyardgrass [4]) | inhibition at 1120 g/ha (Indian Mustard [5]) | inhibition at 1120 g/ha (Seedling johnsongrass [6]) | inhibition at 1120 g/ha (Yellow nutsedge [7]) | inhibition at 1120 g/ha (Wild buckwheat [8]) | inhibition at 1120 g/ha (Annual bluegrass [9]) | inhibition at 1120 g/ha (Cocklebur [10]) | inhibition at 1120 g/ha (Morningglory [11]) | inhibition at 1120 g/ha (Velvetleaf [12]) | inhibition at 1120 g/ha (Downy Brome [13]) | inhibition at 1120 g/ha (Barnyardgrass [14]) | inhibition at 1120 g/ha (Indian Mustard [15]) | inhibition at 1120 g/ha (Seedling johnsongrass [16]) | inhibition at 1120 g/ha (Yellow nutsedge [17]) | inhibition at 1120 g/ha (Wild buckwheat [18]) | inhibition at 1120 g/ha (Annual bluegrass [19]) | inhibition at 1120 g/ha (Cocklebur [20]) | other results
CC(C)CCOC(=O)c1cc(-c2nn(C)c(C(F)(F)F)c2Cl)c(F)cc1Cl [Compound 141] | 100% | 100% | 100% | 70% | 80% | 90% | 0% | 100% | 90% | 90% | 80% | 70% | 70% | 20% | 80% | 50% | 0% | 90% | 20% | 70% | –
CCOC(=O)c1cc(-c2nn(C)c(C(F)(F)F)c2Cl)c(F)cc1Cl [Compound 148, 2-Chloro-5-(4-chloro-1-methyl-5-(trifluoromethyl)-1H-pyrazol-3-yl)-4-fluorobenzoic acid, ethyl ester] | 100% | 100% | 100% | 100% | 100% | 100% | 20% | 100% | 100% | 100% | 100% | 100% | 80% | 90% | 100% | 50% | 0% | 100% | 70% | 90% | –
Cn1nc(-c2cc(N)c(Cl)cc2F)c(Cl)c1C(F)F [Compound 178] | 100% | 100% | 90% | 70% | 70% | 70% | 0% | 100% | 90% | 90% | 50% | 100% | 30% | 10% | 90% | 10% | 0% | 100% | 20% | 20% | –
Cn1nc(-c2cc([N+](=O)[O-])c(Cl)cc2F)c(Cl)c1C(F)F [Compound 198] | 90% | 100% | 70% | 50% | 100% | 70% | 0% | 100% | 50% | 70% | 0% | 80% | 0% | 0% | 20% | 0% | 0% | 70% | 0% | 0% | –
Cn1nc(-c2cc(Oc3ccc(C(F)(F)F)cc3Cl)c(Cl)cc2F)c(Cl)c1C(F)(F)F [Compound 203] | – | – | – | – | – | – | – | – | – | – | – | – | – | – | – | – | – | – | – | – | inhibition at 11210 g/ha (Morningglory [1]): 60%; inhibition at 11210 g/ha (Velvetleaf [2]): 100%; inhibition at 11210 g/ha (Downy Brome [3]): 30%; inhibition at 11210 g/ha (Barnyardgrass [4]): 50%; inhibition at 11210 g/ha (Indian Mustard [5]): 60%; inhibition at 11210 g/ha (Seedling johnsongrass [6]): 60%; inhibition at 11210 g/ha (Yellow nutsedge [7]): 0%; inhibition at 11210 g/ha (Wild buckwheat [8]): 90%; inhibition at 11210 g/ha (Annual bluegrass [9]): 20%; inhibition at 11210 g/ha (Cocklebur [10]): 60%; inhibition at 11210 g/ha (Morningglory [11]): 10%; inhibition at 11210 g/ha (Velvetleaf [12]): 0%; inhibition at 11210 g/ha (Downy Brome [13]): 10%; inhibition at 11210 g/ha (Barnyardgrass [14]): 0%; inhibition at 11210 g/ha (Indian Mustard [15]): 0%; inhibition at 11210 g/ha (Seedling johnsongrass [16]): 20%; inhibition at 11210 g/ha (Yellow nutsedge [17]): 0%; inhibition at 11210 g/ha (Wild buckwheat [18]): 0%; inhibition at 11210 g/ha (Annual bluegrass [19]): 0%; inhibition at 11210 g/ha (Cocklebur [20]): 20%
Cn1nc(-c2cc(Oc3ccc(C(F)(F)F)cc3)c(Cl)cc2F)c(Cl)c1C(F)(F)F [Compound 205] | – | – | – | – | – | – | – | – | – | – | – | – | – | – | – | – | – | – | – | – | inhibition at 11210 g/ha (Morningglory [1]): 80%; inhibition at 11210 g/ha (Velvetleaf [2]): 100%; inhibition at 11210 g/ha (Downy Brome [3]): 50%; inhibition at 11210 g/ha (Barnyardgrass [4]): 10%; inhibition at 11210 g/ha (Indian Mustard [5]): 60%; inhibition at 11210 g/ha (Seedling johnsongrass [6]): 70%; inhibition at 11210 g/ha (Yellow nutsedge [7]): 0%; inhibition at 11210 g/ha (Wild buckwheat [8]): 90%; inhibition at 11210 g/ha (Annual bluegrass [9]): 40%; inhibition at 11210 g/ha (Cocklebur [10]): 60%; inhibition at 11210 g/ha (Morningglory [11]): 0%; inhibition at 11210 g/ha (Velvetleaf [12]): 10%; inhibition at 11210 g/ha (Downy Brome [13]): 0%; inhibition at 11210 g/ha (Barnyardgrass [14]): 0%; inhibition at 11210 g/ha (Indian Mustard [15]): 30%; inhibition at 11210 g/ha (Seedling johnsongrass [16]): 20%; inhibition at 11210 g/ha (Yellow nutsedge [17]): 0%; inhibition at 11210 g/ha (Wild buckwheat [18]): 10%; inhibition at 11210 g/ha (Annual bluegrass [19]): 0%; inhibition at 11210 g/ha (Cocklebur [20]): 0%
CCOC(=O)C(C)Oc1cc(-c2nn(C)c(C(F)(F)F)c2Cl)c(F)cc1Cl (centres unmarked) [Compound 229, 2-(2-Chloro-5-(4-chloro-1-methyl-5-(trifluoromethyl)-1H-pyrazol-3-yl)-4-fluorophenoxy)propanoic acid, ethyl ester] | 100% | 100% | 90% | 100% | 100% | 100% | 40% | 100% | 70% | 100% | 100% | 100% | 100% | 90% | 100% | 100% | 60% | 100% | 100% | 90% | –
Cn1nc(-c2cc(OCc3ccccn3)c(Cl)cc2F)c(Cl)c1C(F)(F)F [Compound 251] | 100% | 100% | 100% | 90% | 70% | 100% | 10% | 90% | 80% | 90% | 40% | 60% | 80% | 0% | 20% | 70% | 0% | 90% | 50% | 30% | –
Cn1nc(-c2cc(OCc3ccc(Cl)s3)c(Cl)cc2F)c(Cl)c1C(F)(F)F [Compound 252] | 100% | 100% | 100% | 90% | 100% | 100% | 20% | 100% | 90% | 100% | 40% | 20% | 60% | 20% | 10% | 60% | 0% | 10% | 30% | 30% | –
COCCOc1cc(-c2nn(C)c(C(F)(F)F)c2Cl)c(F)cc1Cl [Compound 270, 4-Chloro-3-(4-chloro-2-fluoro-5-(methoxyethoxy)phenyl)-1-methyl-5-(trifluoromethyl)-1H-pyrazole] | 100% | 100% | 100% | 100% | 90% | 90% | 60% | 100% | 90% | 90% | 100% | 100% | 100% | 90% | 100% | 70% | 30% | 100% | 70% | 60% | –

Reference: patent publication US5530126A, “Process for the preparation of substituted 6-(pyrazol-3yl)-1,4-benzoxazin-3-ones” (Monsanto Company, priority 1994, dated 1996)
